Laboratory results taken from US20100196476A1, “PROCESS FOR THE PREPARATION AND PHARMACEUTICAL FORMULATIONS FOR 4-QUINOLINONES AND QUINOLINES AND USE THEREOF” (FUNDACAO UNIVERSIDADE FEDERAL DE SAO CARLOS, priority 2007, published 2010).

Columns and labels:
[1] = target: T1, Class III metalloprotease BjussuMP-I (Bothrops jararacussu, UniProt Q1PHZ4); assay: proteolytic activity in casein, BjussuMP-I; type: biochemical, B. jararacussu; conditions: ratio of 1:10 protease:inhibitor (m/m)
T1 construct: BjussuMP-I isolated from B. jararacussu; from tissue; host or cells: venom of B. jararacussu
T1 sequence (Q1PHZ4 134-547): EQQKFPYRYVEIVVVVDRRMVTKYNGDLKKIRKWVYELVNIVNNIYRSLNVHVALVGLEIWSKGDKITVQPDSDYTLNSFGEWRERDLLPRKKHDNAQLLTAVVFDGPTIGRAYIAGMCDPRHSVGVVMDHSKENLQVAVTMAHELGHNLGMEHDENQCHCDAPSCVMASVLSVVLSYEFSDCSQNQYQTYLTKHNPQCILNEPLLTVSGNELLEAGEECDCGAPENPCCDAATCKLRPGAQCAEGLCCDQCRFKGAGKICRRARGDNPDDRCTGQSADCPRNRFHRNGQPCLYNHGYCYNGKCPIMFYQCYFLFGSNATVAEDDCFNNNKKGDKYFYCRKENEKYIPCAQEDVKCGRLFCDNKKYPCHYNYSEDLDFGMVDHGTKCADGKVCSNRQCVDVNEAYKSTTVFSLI

[2] = target: T2, Asp49 BthTX-II phospholipase A2 (Bothrops jararacussu, UniProt P45881); assay: myotoxic activity in mice, BthTX-II; type: in vivo, B. jararacussu
T2 construct: isolated myotoxins (BthTX-I and II); from tissue; host or cells: venom of B. jararacussu
T2 sequence (P45881 17-138): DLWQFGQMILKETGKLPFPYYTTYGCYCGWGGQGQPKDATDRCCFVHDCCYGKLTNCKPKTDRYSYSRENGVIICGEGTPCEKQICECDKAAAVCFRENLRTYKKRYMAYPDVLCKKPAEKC

[3] = target: T3, Lys49 BthTX-I phospholipase A2 (Bothrops jararacussu, UniProt Q90249); assay: myotoxic activity in mice, BthTX-I; type: in vivo, B. jararacussu
T3 construct: isolated myotoxins (BthTX-I and II); from tissue; host or cells: venom of B. jararacussu
T3 sequence (Q90249 17-137 limits assumed): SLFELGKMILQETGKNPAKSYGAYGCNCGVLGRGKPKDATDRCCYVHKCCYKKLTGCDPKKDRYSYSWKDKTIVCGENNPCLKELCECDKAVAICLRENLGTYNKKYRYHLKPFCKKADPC

SMILES: COc1ccc2[nH]c(CO)cc(=O)c2c1 [Compound 2, 2-hydroxymethyl-6-methoxy-1,4-dihydro-4-quinolinone]
- inhibition of proteolytic activity [1]: ~70%
- effect on myotoxic activity [2]: inhibited
- effect on myotoxic activity [3]: inhibited
